Experimental data reported in ChEMBL document CHEMBL1201862, “PubChem BioAssay data set” (2004).
Blank lines part the entries; values can stand above or below the molecule they belong to. The source made the active and inactive calls.

Columns and labels:
Aspartyl aminopeptidase = Aspartyl aminopeptidase (Plasmodium falciparum 3D7, UniProt Q8I2J3)
[1] = biological target: T1, Alkaline phosphatase, tissue-nonspecific isozyme (Homo sapiens, UniProt P05186); test: activation of tissue-nonspecific alkaline phosphatase – biochemical, TNAP isozyme, mouse IAP uHTS hits, selectivity assay for mouse IAP activator project, dose response (AID 488880); type: functional
T1 sequence (P05186 whole entry): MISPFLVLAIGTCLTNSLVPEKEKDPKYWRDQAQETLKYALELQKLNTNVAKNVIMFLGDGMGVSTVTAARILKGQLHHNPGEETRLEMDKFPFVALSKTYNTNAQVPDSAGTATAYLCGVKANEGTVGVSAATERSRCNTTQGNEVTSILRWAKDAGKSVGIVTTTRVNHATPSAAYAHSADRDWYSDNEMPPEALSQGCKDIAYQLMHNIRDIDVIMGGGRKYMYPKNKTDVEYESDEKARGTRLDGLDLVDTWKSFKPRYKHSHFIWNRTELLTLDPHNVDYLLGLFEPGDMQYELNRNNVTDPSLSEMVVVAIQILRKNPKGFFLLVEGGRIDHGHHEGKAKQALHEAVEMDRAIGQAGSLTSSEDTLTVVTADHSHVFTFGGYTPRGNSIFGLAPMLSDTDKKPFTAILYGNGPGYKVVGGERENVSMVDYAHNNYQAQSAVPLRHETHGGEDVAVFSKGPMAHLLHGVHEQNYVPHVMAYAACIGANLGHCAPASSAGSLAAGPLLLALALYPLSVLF

[2] = biological target: Phosphorylase b kinase gamma catalytic chain, liver/testis isoform (Homo sapiens, UniProt P15735); type: functional;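 note: PHKG2 measured as one member of a kinome-wide kinase panel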
[3] = biological target: Serine/threonine-protein kinase TBK1 (Homo sapiens, UniProt Q9UHD2); test: Navigating the Kinome. Panel member name: TBK1; type: functional
Sequence of Serine/threonine-protein kinase TBK1 (Q9UHD2 whole entry): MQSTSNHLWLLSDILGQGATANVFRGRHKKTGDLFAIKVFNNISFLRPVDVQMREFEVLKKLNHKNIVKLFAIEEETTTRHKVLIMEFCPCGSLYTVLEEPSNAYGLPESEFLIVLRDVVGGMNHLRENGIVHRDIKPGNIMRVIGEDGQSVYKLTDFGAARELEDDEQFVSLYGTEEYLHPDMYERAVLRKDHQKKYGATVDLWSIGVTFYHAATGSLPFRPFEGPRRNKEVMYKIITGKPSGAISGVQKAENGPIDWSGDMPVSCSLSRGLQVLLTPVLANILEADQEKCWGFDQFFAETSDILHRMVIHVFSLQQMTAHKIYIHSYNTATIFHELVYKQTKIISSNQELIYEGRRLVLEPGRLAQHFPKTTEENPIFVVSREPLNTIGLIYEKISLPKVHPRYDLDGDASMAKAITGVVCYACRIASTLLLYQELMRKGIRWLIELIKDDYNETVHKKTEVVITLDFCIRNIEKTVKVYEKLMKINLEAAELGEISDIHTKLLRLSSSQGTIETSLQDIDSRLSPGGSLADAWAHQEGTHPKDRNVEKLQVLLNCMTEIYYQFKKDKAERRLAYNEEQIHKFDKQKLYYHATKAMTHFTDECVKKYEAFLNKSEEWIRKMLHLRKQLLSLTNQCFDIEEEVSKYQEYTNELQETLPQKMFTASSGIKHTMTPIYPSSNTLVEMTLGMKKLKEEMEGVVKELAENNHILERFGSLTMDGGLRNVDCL

[4] = biological target: Protein kinase C delta type (Homo sapiens, UniProt Q05655); type: functional
[5] = biological target: Proto-oncogene tyrosine-protein kinase receptor Ret (Homo sapiens, UniProt P07949); type: functional;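 note: measured within a kinome-wide profiling panel, RET as the panel member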
[6] = biological target: Tyrosine-protein kinase SYK (Homo sapiens, UniProt P43405); type: functional
[7] = biological target: Serine/threonine-protein kinase Chk2 (Homo sapiens, UniProt O96017); type: functional;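 note: CHEK2 entry within a kinome-wide screening panel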
[8] = biological target: Cell division cycle 7-related protein kinase (Homo sapiens, UniProt O00311); type: functional;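 note: value obtained from a kinome-wide kinase panel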
Sequence of Cell division cycle 7-related protein kinase (O00311 whole entry): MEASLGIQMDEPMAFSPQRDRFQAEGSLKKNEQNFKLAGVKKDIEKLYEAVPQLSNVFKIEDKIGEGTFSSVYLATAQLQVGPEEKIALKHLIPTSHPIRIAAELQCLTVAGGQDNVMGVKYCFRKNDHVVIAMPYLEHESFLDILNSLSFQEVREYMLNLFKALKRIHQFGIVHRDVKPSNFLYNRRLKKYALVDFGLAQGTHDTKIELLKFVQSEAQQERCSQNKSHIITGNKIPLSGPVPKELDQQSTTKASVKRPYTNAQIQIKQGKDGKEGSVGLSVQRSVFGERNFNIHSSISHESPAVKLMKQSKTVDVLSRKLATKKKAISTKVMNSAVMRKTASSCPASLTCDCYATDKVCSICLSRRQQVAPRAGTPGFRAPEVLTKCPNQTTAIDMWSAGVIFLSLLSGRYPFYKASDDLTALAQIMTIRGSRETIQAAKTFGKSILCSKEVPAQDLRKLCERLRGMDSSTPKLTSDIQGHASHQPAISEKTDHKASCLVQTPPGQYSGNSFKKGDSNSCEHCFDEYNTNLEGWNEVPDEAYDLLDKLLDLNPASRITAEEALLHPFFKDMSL

[9] = biological target: Calcium/calmodulin-dependent protein kinase type II subunit delta (Homo sapiens, UniProt Q13557); type: functional
Sequence of Calcium/calmodulin-dependent protein kinase type II subunit delta (Q13557 whole entry, canonical isoform): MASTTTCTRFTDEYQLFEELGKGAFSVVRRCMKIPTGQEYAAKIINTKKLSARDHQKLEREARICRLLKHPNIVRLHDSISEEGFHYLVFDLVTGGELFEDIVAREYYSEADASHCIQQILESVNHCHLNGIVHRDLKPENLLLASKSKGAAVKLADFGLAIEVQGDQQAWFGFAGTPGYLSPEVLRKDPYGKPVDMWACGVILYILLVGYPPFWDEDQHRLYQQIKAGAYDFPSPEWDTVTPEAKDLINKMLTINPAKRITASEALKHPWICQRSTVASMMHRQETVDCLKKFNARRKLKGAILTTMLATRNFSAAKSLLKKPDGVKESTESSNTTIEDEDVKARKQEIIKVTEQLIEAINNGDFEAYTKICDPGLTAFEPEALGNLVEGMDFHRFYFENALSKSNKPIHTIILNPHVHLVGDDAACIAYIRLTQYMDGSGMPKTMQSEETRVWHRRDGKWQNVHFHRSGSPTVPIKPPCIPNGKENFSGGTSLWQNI

[10] = biological target: Casein kinase I isoform alpha (Homo sapiens, UniProt P48729); type: functional
[11] = biological target: Casein kinase I isoform gamma-1 (Homo sapiens, UniProt Q9HCP0); type: functional;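 note: measured as the CSNK1G1 member of a kinome profiling panel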
[12] = biological target: Serine/threonine-protein kinase pim-3 (Homo sapiens, UniProt Q86V86); type: functional;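 note: value obtained as one member of a broad kinase panel profiling effort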
[13] = biological target: Protein kinase C gamma type (Homo sapiens, UniProt P05129); type: functional
[14] = biological target: Mitogen-activated protein kinase kinase kinase kinase 2 (Homo sapiens, UniProt Q12851); type: functional;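 note: measured as one member of a kinome-wide kinase panel, with MAP4K2 as the panel entry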
Activated CDC42 kinase 1 = Activated CDC42 kinase 1 (Homo sapiens, UniProt Q07912); test: Navigating the Kinome. Panel member name: ACK1; type: functional
[15] = biological target: Insulin-like growth factor 1 receptor (Homo sapiens, UniProt P08069); test: Navigating the Kinome. Panel member name: IGF1R; type: functional
[16] = biological target: Leucine-rich repeat serine/threonine-protein kinase 2 (Homo sapiens, UniProt Q5S007); type: functional;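 note: value from a broad kinome-wide panel profiling study in which LRRK2 was one of the kinases tested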
[17] = biological target: Vascular endothelial growth factor receptor 3 (Homo sapiens, UniProt P35916); type: functional;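 note: value from a kinome-wide profiling panel, with FLT4 as the panel member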
Sequence of Vascular endothelial growth factor receptor 3 (P35916 whole entry): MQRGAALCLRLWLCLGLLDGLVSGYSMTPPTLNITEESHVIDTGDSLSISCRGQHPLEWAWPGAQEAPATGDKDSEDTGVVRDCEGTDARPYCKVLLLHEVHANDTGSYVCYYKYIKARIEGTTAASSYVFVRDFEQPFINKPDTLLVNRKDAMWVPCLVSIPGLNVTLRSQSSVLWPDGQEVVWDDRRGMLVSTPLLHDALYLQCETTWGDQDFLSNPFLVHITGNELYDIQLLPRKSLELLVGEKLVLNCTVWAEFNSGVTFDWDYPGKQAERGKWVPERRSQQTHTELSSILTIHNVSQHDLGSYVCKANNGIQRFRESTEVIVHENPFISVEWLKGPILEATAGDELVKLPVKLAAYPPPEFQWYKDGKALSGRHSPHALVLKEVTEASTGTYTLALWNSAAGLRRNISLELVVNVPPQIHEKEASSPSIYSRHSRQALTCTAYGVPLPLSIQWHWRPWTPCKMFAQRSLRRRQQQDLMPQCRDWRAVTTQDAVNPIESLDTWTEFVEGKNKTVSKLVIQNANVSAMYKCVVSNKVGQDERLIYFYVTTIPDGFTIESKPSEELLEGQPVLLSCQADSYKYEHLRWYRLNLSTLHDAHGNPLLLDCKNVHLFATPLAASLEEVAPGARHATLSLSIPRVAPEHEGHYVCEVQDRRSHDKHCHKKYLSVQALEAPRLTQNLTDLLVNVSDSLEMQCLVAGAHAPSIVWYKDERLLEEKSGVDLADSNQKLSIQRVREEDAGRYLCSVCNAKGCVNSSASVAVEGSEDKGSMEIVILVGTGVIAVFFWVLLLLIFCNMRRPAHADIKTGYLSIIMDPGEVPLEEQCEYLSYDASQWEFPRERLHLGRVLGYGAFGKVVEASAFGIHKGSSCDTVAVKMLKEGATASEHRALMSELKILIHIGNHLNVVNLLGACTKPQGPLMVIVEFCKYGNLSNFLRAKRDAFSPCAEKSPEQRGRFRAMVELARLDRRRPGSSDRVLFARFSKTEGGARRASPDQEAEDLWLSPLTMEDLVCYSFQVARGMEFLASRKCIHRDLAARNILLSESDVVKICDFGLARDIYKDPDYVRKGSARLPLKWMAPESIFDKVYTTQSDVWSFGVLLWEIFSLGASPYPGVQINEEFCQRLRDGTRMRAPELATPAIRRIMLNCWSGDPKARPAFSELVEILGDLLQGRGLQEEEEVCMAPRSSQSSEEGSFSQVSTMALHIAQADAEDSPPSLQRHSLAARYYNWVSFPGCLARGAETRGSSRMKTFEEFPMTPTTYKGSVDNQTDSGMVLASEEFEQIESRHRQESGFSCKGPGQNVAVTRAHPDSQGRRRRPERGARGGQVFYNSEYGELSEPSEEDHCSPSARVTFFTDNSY

[18] = biological target: Rho-associated protein kinase 1 (Homo sapiens, UniProt Q13464); type: functional;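 note: measured within a broad kinome-wide panel profiling many kinases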
[19] = biological target: Serine/threonine-protein kinase pim-2 (Homo sapiens, UniProt Q9P1W9); type: functional;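 note: value comes from a broad kinase panel profiling study in which PIM2 was one of the panel members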
Sequence of Serine/threonine-protein kinase pim-2 (Q9P1W9 whole entry): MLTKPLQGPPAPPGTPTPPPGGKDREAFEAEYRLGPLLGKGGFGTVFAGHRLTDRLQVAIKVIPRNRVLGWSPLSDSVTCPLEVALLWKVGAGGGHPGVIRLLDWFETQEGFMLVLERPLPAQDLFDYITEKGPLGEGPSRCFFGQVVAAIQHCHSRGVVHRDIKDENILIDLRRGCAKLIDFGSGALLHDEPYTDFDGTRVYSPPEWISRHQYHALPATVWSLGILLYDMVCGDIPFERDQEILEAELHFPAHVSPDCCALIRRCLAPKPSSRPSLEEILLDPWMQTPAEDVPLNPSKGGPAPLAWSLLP

[20] = biological target: Serine/threonine-protein kinase PLK1 (Homo sapiens, UniProt P53350); type: functional;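 note: PLK1 measured as one member of a kinome-wide profiling panel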
Sequence of Serine/threonine-protein kinase PLK1 (P53350 whole entry): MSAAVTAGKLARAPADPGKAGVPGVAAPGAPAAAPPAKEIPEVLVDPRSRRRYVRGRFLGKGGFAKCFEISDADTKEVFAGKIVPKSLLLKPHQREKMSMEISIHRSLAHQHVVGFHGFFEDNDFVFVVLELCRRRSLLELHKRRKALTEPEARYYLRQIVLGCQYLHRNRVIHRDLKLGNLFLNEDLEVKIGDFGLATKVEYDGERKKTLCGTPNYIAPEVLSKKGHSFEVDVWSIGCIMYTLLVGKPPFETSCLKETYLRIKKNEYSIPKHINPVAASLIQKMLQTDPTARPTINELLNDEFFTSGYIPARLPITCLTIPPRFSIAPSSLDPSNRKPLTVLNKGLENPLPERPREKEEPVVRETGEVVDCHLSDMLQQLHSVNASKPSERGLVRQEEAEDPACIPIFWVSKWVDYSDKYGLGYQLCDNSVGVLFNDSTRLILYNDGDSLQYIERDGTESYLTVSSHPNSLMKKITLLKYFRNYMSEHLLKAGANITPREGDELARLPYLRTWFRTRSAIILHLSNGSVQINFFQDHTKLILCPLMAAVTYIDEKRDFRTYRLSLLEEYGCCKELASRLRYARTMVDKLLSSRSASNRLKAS

[21] = biological target: Glycogen synthase kinase-3 beta (Homo sapiens, UniProt P49841); type: functional;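 note: value comes from a broad kinome profiling panel, with GSK3B as the panel member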
[22] = biological target: Cyclin-dependent kinase 9 (Homo sapiens, UniProt P50750); type: functional;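 note: value from the CDK9 entry of a kinome-spanning kinase panel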
[23] = biological target: Macrophage colony-stimulating factor 1 receptor (Homo sapiens, UniProt P07333); type: functional;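 note: value comes from the Navigating the Kinome screening panel, CSF1R member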
[24] = biological target: Inhibitor of nuclear factor kappa-B kinase subunit epsilon (Homo sapiens, UniProt Q14164); test: Navigating the Kinome. Panel member name: IKBKE; type: functional
[25] = biological target: Tyrosine-protein kinase FRK (Homo sapiens, UniProt P42685); type: functional;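 note: FRK tested as one member of a kinome panel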
Sequence of Tyrosine-protein kinase FRK (P42685 whole entry): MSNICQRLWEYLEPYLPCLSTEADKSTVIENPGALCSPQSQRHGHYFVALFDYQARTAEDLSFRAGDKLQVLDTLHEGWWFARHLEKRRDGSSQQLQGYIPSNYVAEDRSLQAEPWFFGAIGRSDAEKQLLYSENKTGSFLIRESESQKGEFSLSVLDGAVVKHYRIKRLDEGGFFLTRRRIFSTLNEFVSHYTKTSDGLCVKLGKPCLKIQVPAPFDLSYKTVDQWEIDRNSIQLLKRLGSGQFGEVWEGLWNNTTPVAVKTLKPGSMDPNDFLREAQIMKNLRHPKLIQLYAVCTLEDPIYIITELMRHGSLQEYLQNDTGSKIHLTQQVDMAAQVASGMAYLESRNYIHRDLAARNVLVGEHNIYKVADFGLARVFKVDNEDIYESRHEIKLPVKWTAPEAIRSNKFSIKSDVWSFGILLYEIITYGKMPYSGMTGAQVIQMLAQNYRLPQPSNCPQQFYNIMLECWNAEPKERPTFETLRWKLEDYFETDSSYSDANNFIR

[26] = viability loss in MITF-independent A375 cells – cell-based, CellTiter-Glo luminescence, dry powder, set 7, counter-screen for MITF inhibitor project, dose response (AID 624490); type: functional; conditions: A-375
[27] = growth inhibition of SK-MEL-5 melanoma cells – cell-based, CellTiter-Glo luminescence, dry powder, set 8, orthogonal assay for MITF inhibitor project, dose response (AID 651586); type: functional
[28] = biological target: T2, RNA-binding protein pos-1 (Caenorhabditis elegans, UniProt G5EF15); test: disruptors of C. elegans POS-1 RNA interaction – biochemical, fluorescence polarization, dose response (AID 1964);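 note: purified POS-1 fused to maltose binding protein made in E. coli; potency of compounds blocking POS-1 binding to fluorescent RNA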
T2 sequence (G5EF15 whole entry): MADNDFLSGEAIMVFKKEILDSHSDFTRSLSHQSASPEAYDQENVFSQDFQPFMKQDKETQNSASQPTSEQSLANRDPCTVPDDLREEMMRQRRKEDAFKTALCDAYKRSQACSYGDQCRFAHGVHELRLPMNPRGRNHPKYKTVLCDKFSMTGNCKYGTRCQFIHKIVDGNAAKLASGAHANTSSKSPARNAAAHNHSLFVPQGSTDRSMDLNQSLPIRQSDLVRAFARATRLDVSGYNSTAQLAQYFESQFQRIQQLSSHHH

[29] = NIH3T3 cell viability loss – ATP luminescence, mouse fibroblasts, counter-screen, dose response (AID 2010); type: functional, cell-based;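 note: cells exposed to compound for about 90 hours before reading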
Streptococcus = test: GAS UMAA2166 growth inhibition – luminescence, BacTiterGlo, counter-screen for streptokinase expression inhibitor project, dose response (AID 1915); type: functional, organism-based;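 note: potency for reduction of bacterial viability or growth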
Protein Tat = Protein Tat (Human immunodeficiency virus type 1 group M subtype B (isolate HXB2)(HIV-1), UniProt P04608); type: functional;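 note: tat binding to TAR RNA read out by fluorescence polarization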
Sequence of Protein Tat (P04608 whole entry): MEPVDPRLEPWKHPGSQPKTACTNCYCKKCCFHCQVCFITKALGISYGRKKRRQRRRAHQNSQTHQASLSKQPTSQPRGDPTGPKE

Compound: CS(=O)(=O)c1ccc2c(c1)SC1=NC(=O)/C(=C/c3ccc(O)c(O)c3)C(=N)N12
IC50 (Aspartyl aminopeptidase): 2160 nM (active)
EC50 [1]: 77500 nM (active)

Ki [2]: 316 nM (active)
Ki [3]: 25.1 nM (active)
Ki [4]: 3160 nM (active)
Ki [5]: 126 nM (active)
Ki [6]: 20 nM (active)
Ki [7]: 50.1 nM (active)
Ki [8]: 1.26 nM (active)
Ki [9]: 794 nM (active)
Ki [10]: 398 nM (active)
Ki [11]: 25.1 nM (active)
Ki [12]: 1260 nM (active)
Ki [13]: 126 nM (active)
Ki [14]: 398 nM (active)
Ki (Activated CDC42 kinase 1): > 3980 nM (inactive)
Ki [15]: > 2000 nM (inactive)
Ki [16]: 501 nM (active)
Ki [17]: 200 nM (active)
Ki [18]: 1260 nM (active)
Ki [19]: > 2510 nM (inactive)
Ki [20]: > 7940 nM (inactive)
Ki [21]: > 100 nM (inactive)
Ki [22]: 501 nM (active)
Ki [23]: > 1580 nM (inactive)
Ki [24]: 200 nM (active)
Ki [25]: 79.4 nM (active)
Compound: COc1ccc(C(=O)Nc2n[nH]c3ccc(-c4cn(Cc5ccccc5)nn4)cc23)cc1OC

Compound: C=CCNC1=C(Cl)C(=O)c2ccccc2C1=O
AC50 [26]: 53500 nM (active)
AC50 [27]: 4580 nM (active)

Compound: CCOC(=O)C(C(=O)OCC)c1cc(Br)c2noc3c2c1C(=O)c1ccccc1-3
EC50 [28]: 9230 nM (active)
EC50 [29]: 3060 nM (active)
EC50 (Streptococcus): > 150000 nM (not active)
IC50 (Protein Tat): 6440 nM (inconclusive)
